Assay results published in ChEMBL document CHEMBL1201862, “PubChem BioAssay data set” (2004).
“And” between values parts separate entries of the source, which are not always exact repeats. Equal entries are not always repeated.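 Tested at 5 concentrations; 48 h exposure; 96-well plates; endpoints linearly interpolated, else capped at highest concentration. Here, GI50 denotes the concentration required for 50% inhibition of growth.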 The source made the active and inactive calls. Cut-off read from the data, not from the text of the source: active = GI50 up to about 1.1 µM and inactive = higher.

How the values were obtained:
Assay in all cases: inhibition of tumour cell growth, NCI panel, 48 h
TK-10 = test system: TK-10
CCRF-CEM = test system: CCRF-CEM
EKVX = test system: EKVX
IGROV-1 = test system: IGROV-1
HOP-92 = test system: HOP-92
CAKI-1 = test system: CAKI-1
KM12 = test system: KM12
MDA-N = test system: MDA-N
A498 = test system: A498
MDA-MB-231 = test system: MDA-MB-231
SF-539 = test system: SF-539
SK-MEL-28 = test system: SK-MEL-28
SW-620 = test system: SW-620
NCI-H460 = test system: NCI-H460
MDA-MB-435 = test system: MDA-MB-435
OVCAR-8 = test system: OVCAR-8
SF-295 = test system: SF-295
A549 = test system: A549
MCF7 = test system: MCF7
NCI/ADR-RES = test system: NCI/ADR-RES
OVCAR-3 = test system: OVCAR-3
U-251 = test system: U-251
HOP-62 = test system: HOP-62
Malme-3M = test system: Malme-3M
ACHN = test system: ACHN
786-0 = test system: 786-0
M14 = test system: M14
HCT-116 = test system: HCT-116
OVCAR-4 = test system: OVCAR-4
HCC 2998 = test system: HCC 2998
SK-OV-3 = test system: SK-OV-3
HL-60 = test system: HL-60
LOX IMVI = test system: LOX IMVI
BT-549 = test system: BT-549
UO-31 = test system: UO-31
UACC-62 = test system: UACC-62
RPMI-8226 = test system: RPMI-8226
DU-145 = test system: DU-145
COLO 205 = test system: COLO 205
Hs-578T = test system: Hs-578T
T47D = test system: T47D
NCI-H226 = test system: NCI-H226
SF-268 = test system: SF-268
NCI-H522 = test system: NCI-H522
HT-29 = test system: HT-29
K562 = test system: K562
PC-3 = test system: PC-3
HCT-15 = test system: HCT-15
SR = test system: SR
UACC-257 = test system: UACC-257
SN12C = test system: SN12C
RXF 393 = test system: RXF 393
SNB-19 = test system: SNB-19
SK-MEL-5 = test system: SK-MEL-5
MOLT-4 = test system: MOLT-4
SK-MEL-2 = test system: SK-MEL-2
NCI-H23 = test system: NCI-H23
OVCAR-5 = test system: OVCAR-5
SNB-75 = test system: SNB-75

## O=C(Cc1nccc2c1[nH]c1ccccc12)OC1C#CCSCC#C/C=C\1 (stereo not drawn)
TK-10
  GI50: > 100 µM (inactive)
CCRF-CEM
  GI50: 38.8 µM (inactive)
EKVX
  GI50: 64.4 µM (inactive)
IGROV-1
  GI50: > 100 µM (inactive)
HOP-92
  GI50: > 100 µM (inactive)
CAKI-1
  GI50: > 100 µM (inactive)
KM12
  GI50: > 100 µM (inactive)
MDA-N
  GI50: > 100 µM (inactive)
A498
  GI50: 78.5 µM (inactive)
MDA-MB-231
  GI50: > 100 µM (inactive)
SF-539
  GI50: > 100 µM (inactive)
SK-MEL-28
  GI50: > 100 µM (inactive)
SW-620
  GI50: > 100 µM (inactive)
NCI-H460
  GI50: > 100 µM (inactive)
MDA-MB-435
  GI50: 75.7 µM (inactive)
OVCAR-8
  GI50: > 100 µM (inactive)
SF-295
  GI50: 87.9 µM (inactive)
A549
  GI50: > 100 µM (inactive)
MCF7
  GI50: > 100 µM (inactive)
NCI/ADR-RES
  GI50: > 100 µM (inactive)
OVCAR-3
  GI50: 95.9 µM (inactive)
U-251
  GI50: > 100 µM (inactive)
HOP-62
  GI50: > 100 µM (inactive)
Malme-3M
  GI50: > 100 µM (inactive)
ACHN
  GI50: > 100 µM (inactive)
786-0
  GI50: > 100 µM (inactive)
M14
  GI50: > 100 µM (inactive)
HCT-116
  GI50: 50 µM (inactive)
OVCAR-4
  GI50: > 100 µM (inactive)
HCC 2998
  GI50: > 100 µM (inactive)
SK-OV-3
  GI50: > 100 µM (inactive)
HL-60
  GI50: 57 µM (inactive)
LOX IMVI
  GI50: 57.9 µM (inactive)
BT-549
  GI50: > 100 µM (inactive)
UO-31
  GI50: 71.4 µM (inactive)
UACC-62
  GI50: > 100 µM (inactive)
RPMI-8226
  GI50: > 100 µM (inactive)
DU-145
  GI50: > 100 µM (inactive)
COLO 205
  GI50: 52.1 µM (inactive)
Hs-578T
  GI50: > 100 µM (inactive)
T47D
  GI50: 72.1 µM (inactive)
NCI-H226
  GI50: > 100 µM (inactive)
SF-268
  GI50: > 100 µM (inactive)
NCI-H522
  GI50: 44.2 µM (inactive)
HT-29
  GI50: > 100 µM (inactive)
K562
  GI50: 43 µM (inactive)
PC-3
  GI50: > 100 µM (inactive)
HCT-15
  GI50: > 100 µM
SR
  GI50: > 100 µM (inactive)
UACC-257
  GI50: > 100 µM (inactive)
SN12C
  GI50: > 100 µM (inactive)
RXF 393
  GI50: > 100 µM (inactive)
SNB-19
  GI50: > 100 µM (inactive)
SK-MEL-5
  GI50: > 100 µM (inactive)
MOLT-4
  GI50: 39.5 µM (inactive)

## NCCOCC(N)C(=O)O (stereo not drawn)
TK-10
  GI50: > 100 µM (inactive)
CCRF-CEM
  GI50: > 100 µM (inactive) and > 72.8 µM (inactive)
EKVX
  GI50: > 100 µM (inactive)
IGROV-1
  GI50: > 100 µM (inactive)
HOP-92
  GI50: > 100 µM (inactive)
CAKI-1
  GI50: > 100 µM (inactive)
KM12
  GI50: > 100 µM (inactive)
MDA-N
  GI50: > 100 µM (inactive)
SK-MEL-2
  GI50: > 100 µM (inactive)
A498
  GI50: > 100 µM (inactive)
MDA-MB-231
  GI50: > 100 µM (inactive)
SF-539
  GI50: > 100 µM (inactive)
SK-MEL-28
  GI50: > 100 µM (inactive)
SW-620
  GI50: > 100 µM (inactive)
NCI-H460
  GI50: > 100 µM (inactive)
MDA-MB-435
  GI50: > 100 µM (inactive)
OVCAR-8
  GI50: > 100 µM (inactive)
SF-295
  GI50: > 100 µM (inactive)
A549
  GI50: > 100 µM (inactive)
NCI-H23
  GI50: > 100 µM (inactive)
MCF7
  GI50: > 100 µM (inactive)
NCI/ADR-RES
  GI50: > 100 µM (inactive)
OVCAR-3
  GI50: > 100 µM (inactive)
U-251
  GI50: > 100 µM (inactive)
HOP-62
  GI50: > 100 µM (inactive)
Malme-3M
  GI50: > 100 µM (inactive)
ACHN
  GI50: > 100 µM (inactive)
786-0
  GI50: > 100 µM (inactive)
M14
  GI50: > 100 µM (inactive)
HCT-116
  GI50: > 100 µM (inactive)
OVCAR-4
  GI50: > 100 µM (inactive)
HCC 2998
  GI50: > 100 µM (inactive)
SK-OV-3
  GI50: > 100 µM (inactive)
HL-60
  GI50: > 100 µM (inactive)
LOX IMVI
  GI50: > 100 µM (inactive) and > 77.4 µM (inactive)
BT-549
  GI50: > 100 µM (inactive)
UO-31
  GI50: > 100 µM (inactive)
UACC-62
  GI50: > 100 µM (inactive)
DU-145
  GI50: > 100 µM (inactive)
COLO 205
  GI50: > 100 µM (inactive)
OVCAR-5
  GI50: > 100 µM (inactive)
SNB-75
  GI50: > 100 µM (inactive)
Hs-578T
  GI50: > 100 µM (inactive)
T47D
  GI50: > 100 µM (inactive)
NCI-H226
  GI50: > 100 µM (inactive)
SF-268
  GI50: > 100 µM (inactive)
NCI-H522
  GI50: > 100 µM (inactive)
HT-29
  GI50: > 100 µM (inactive)
K562
  GI50: > 100 µM (inactive)
PC-3
  GI50: > 100 µM (inactive)
HCT-15
  GI50: > 100 µM
SR
  GI50: > 100 µM (inactive) and 54.8 µM (inactive)
UACC-257
  GI50: > 100 µM (inactive)
SN12C
  GI50: > 100 µM (inactive)
RXF 393
  GI50: > 100 µM (inactive)
SNB-19
  GI50: > 100 µM (inactive)
SK-MEL-5
  GI50: > 100 µM (inactive) and > 95.7 µM (inactive)
MOLT-4
  GI50: > 100 µM (inactive)
